According to patent US7575882B2, “Compositions and methods for identifying modulators of TRPV2” (Janssen Pharmaceutica N. V., priority 2005, dated 2009):

Key:
human TRPV2 = target: T1, human TRPV2 (Homo sapiens, UniProt Q9Y5S1); test: Whole-cell patch clamp, HEK293 cells transiently transfected with human TRPV2; type: cell-based; details: 10 μM ruthenium red; 100 μM Δ^9-THC
T1 construct: A cDNA fragment encoding the full-length human TRPV2 was subcloned into pCI-neo or pcDNA3; expressed in transfected cells; host or cells: HEK293, transient, pCI-neo or pcDNA3
T1 sequence (Q9Y5S1 1-764): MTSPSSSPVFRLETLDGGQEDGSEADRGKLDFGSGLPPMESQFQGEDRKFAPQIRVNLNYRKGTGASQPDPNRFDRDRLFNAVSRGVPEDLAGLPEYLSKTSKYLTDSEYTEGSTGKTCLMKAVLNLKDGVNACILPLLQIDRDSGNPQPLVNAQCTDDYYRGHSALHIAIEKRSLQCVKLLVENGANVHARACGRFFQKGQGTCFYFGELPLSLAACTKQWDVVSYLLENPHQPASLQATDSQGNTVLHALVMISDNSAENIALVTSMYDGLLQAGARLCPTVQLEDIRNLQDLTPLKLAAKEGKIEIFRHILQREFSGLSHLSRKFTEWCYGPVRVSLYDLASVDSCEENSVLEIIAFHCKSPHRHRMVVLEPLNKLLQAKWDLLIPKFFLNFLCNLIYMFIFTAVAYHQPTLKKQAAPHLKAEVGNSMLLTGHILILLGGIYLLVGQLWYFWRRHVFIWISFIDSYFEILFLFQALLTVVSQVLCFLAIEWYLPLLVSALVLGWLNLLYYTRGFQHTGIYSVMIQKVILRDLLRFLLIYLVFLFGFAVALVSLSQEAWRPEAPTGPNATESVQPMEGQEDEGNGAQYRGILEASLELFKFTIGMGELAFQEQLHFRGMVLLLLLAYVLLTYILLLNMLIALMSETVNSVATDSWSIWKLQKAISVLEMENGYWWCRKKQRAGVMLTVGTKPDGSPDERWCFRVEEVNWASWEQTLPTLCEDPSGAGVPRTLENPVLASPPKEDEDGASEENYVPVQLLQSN
Protocol: A cDNA fragment encoding the full-length human TRPV2 was subcloned into pCI-neo or pcDNA3 mammalian expression vectors. The expression constructs were then transfected into HEK293 cells with FuGene6 transfection reagent (Roche, Indianapolis, Ind.) according to vendor's protocol. TRPV2-expressing HEK293 cells were cultured in DMEM supplemented with 10% fetal bovine serum, 100 units/ml penicillin, and 100 μg/ml streptomycin for 48-72 hr and either evaluated for transient expression and/or activity, or dosed with 400 μg/ml G418 to select for stably-transfected TRPV2-expressing cell clones. Cells were maintained at 37° C. and in 5% CO2.
To further confirm the Δ^9-THC effect on TRPV2, whole-cell patch clamp studies were performed. The extracellular solution contained (in mM): NaCl, 132; CaCl, 1.8; KCl, 5.4; MgCl2, 0.8; HEPES, 10; glucose, 10; pH=7.4. The intracellular solution used to fill recording pipettes contained (in mM): CsCl, 145; EGTA, 5; HEPES, 10; glucose, 5; pH=7.4. […] Currents were amplified by a patch clamp amplifier and filtered at 2 kHz (Axopatch 200B), sampled at 10 kHz using Digidata 1322A and acquired and analyzed with pClamp 9.0 (all instruments from Molecular Devices, CA). […]

rat TRPV2 = target: T2, rat TRPV2 (Rattus norvegicus, UniProt Q9WUD2, A713V/L151P/T158I); test: Whole-cell patch clamp, HEK293 cells stably expressing rat TRPV2; type: cell-based; details: 10 μM ruthenium red; 100 μM Δ^9-THC
T2 construct: A cDNA fragment encoding the full-length rat TRPV2 was subcloned into pCI-neo; expressed in transfected cells
T2 sequence (Q9WUD2 1-761 L151P/T158I/A713V): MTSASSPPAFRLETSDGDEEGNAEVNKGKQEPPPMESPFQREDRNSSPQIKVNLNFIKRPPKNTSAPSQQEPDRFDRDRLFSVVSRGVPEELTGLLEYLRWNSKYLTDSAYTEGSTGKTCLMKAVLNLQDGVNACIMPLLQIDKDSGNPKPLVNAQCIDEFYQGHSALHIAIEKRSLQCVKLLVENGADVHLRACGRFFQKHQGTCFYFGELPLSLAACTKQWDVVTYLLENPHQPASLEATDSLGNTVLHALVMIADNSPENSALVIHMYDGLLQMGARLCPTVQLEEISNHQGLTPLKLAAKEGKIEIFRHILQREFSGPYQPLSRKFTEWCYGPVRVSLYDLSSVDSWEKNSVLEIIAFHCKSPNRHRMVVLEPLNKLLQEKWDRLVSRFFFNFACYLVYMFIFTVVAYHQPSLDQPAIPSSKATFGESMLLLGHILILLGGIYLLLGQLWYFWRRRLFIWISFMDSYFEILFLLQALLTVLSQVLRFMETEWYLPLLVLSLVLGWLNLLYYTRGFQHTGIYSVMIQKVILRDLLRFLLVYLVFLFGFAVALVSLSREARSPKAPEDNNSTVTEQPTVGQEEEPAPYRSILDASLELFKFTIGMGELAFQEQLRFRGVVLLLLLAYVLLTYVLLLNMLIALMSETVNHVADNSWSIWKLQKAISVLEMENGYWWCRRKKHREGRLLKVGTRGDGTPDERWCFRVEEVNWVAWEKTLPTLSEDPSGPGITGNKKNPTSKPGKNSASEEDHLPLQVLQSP
Protocol: To further confirm the Δ^9-THC effect on TRPV2, whole-cell patch clamp studies were performed. The extracellular solution contained (in mM): NaCl, 132; CaCl, 1.8; KCl, 5.4; MgCl2, 0.8; HEPES, 10; glucose, 10; pH=7.4. The intracellular solution used to fill recording pipettes contained (in mM): CsCl, 145; EGTA, 5; HEPES, 10; glucose, 5; pH=7.4. Recordings were performed using the conventional whole-cell patch clamp technique, 2-3 days after transient transfection of human TRPV2 into HEK293 cell or 1-2 days after plating HEK293 cells stably expressing rat TRPV2 onto glass coverslips. Currents were amplified by a patch clamp amplifier and filtered at 2 kHz (Axopatch 200B), sampled at 10 kHz using Digidata 1322A and acquired and analyzed with pClamp 9.0 (all instruments from Molecular Devices, CA). A 600 ms voltage ramp was given once every five seconds from −100 mV to +60 mV. The holding potential between voltage ramps was −100 mV. Extracellular solutions were applied to the cell at 0.5 ml/min via a gravity-fed perfusion system. All experiments were performed at 22° C.

## N.N.N.N.N.N.N.N.N.N.N.N.N.N.[Cl-].[Cl-].[Cl-].[Cl-].[Cl-].[Cl-].[O-2].[O-2].[Ru+3].[Ru+3].[Ru+4] [ruthenium red]
Human TRPV2
  inhibition of Δ^9-THC-activated currents, human TRPV2: significantly inhibited
Rat TRPV2
  inhibition of Δ^9-THC-activated currents, rat TRPV2: significantly inhibited
